The text below walks through data of patent publication US8021570B2, “β-peptide lyotropic liquid crystals and methods of manufacture and use thereof” (Wisconsin Alumni Research Foundation, priority 2006, dated 2011).

The target in one series is T1, streptavidin (Streptomyces avidinii, UniProt P22629).
T1 construct: purchased Pierce Biotechnology
The experiment in a line: Stability of streptavidin immobilized on gold slides after exposure to a liquid crystal (binding of fluorescently labeled biotin). The following applies: 2 hrs incubation.

The nature of series [1]: Optical microscopy of aqueous β-peptide solutions between crossed polarizing filters (birefringence = LC phase formation). The class given is physicochemical. The following applies: aqueous solution. The source says: The inventors used optical microscopy for initial evaluation of aqueous solutions of 1-5. For each β-peptide, aqueous solutions of varying concentration were drawn into microcapillaries and examined between crossed polarizing filters at room temperature (FIGS. 1 and 3). In such experiments, the observation of birefringence is taken as evidence of LC phase formation. […] Increasing β-peptide length by one triad, to generate 3, led to LC behavior at lower concentrations, as shown by the image obtained for a 10 wt % sample (61 mM, FIG. 1C). […] Thus, self-assembly of the chiral helix formed by 3 induced a helical ordering of molecules in the LC phase whereas the two-turn, chiral helix formed by 2 was unable to induce this higher ordered phase.
β-Peptides were weighed into glass vials, diluted to the desired concentration with water, and left on an oscillatory shaker overnight to ensure dissolution. β-peptide solutions were then drawn into a 2 μL microcapillary (Drummond), and the ends were sealed with a high viscosity vacuum grease (Dow-Corning) Microcapillaries were placed on a glass slide and imaged on an Olympus BX-60 microscope (Tokyo, Japan) in transmission mode between crossed polarizing filters using a digital camera (Olympus C2020 Zoom). […] Temperature was recorded from a thermostat but was not further calibrated.
Materials and Methods • Materials. […] Solvent A and Solvent B for RP-HPLC were 0.1% trifluoroacetic acid (TFA) in Millipore water and 0.1% TFA in acetonitrile, respectively. β-peptide purity was assessed using a Vydac C18 analytical column using a flow rate of 1 mL/min from 10-60% B over 50 minutes monitoring at 220 and 273 nm. • MALDI-TOF-MS (matrix-assisted laser desorption-ionization-time-of-flight mass spectrometry) data were collected on a Bruker REFLEX II spectrometer with a 337 nm laser using α-cyano-4-hydroxycinnamic acid as matrix. […] To assess the upper limit of concentration, a 1 μL droplet of a concentrated peptide solution was allowed to slowly evaporate while being monitored for birefringence. […]

Where only a bound is given, the exact number is not on record here.

T1 sequence (P22629 25-183): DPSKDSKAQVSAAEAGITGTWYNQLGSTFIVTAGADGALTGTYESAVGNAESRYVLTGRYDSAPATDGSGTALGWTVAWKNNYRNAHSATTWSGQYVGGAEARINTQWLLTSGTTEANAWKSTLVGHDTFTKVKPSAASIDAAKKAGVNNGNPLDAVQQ

As to `O=C([O-])c1cc(=O)c2c(OCC(O)COc3cccc4oc(C(=O)[O-])cc(=O)c34)cccc2o1.[Na+].[Na+]` [disodium chromoglycate], at streptavidin (16 wt %), the “state of immobilized streptavidin after incubation with the liquid crystal” value (“state of immobilized streptavidin” for short) is recorded as “streptavidin is still able to bind biotin”. As for `CCCCCCCCCCOS(=O)(=O)[O-].[Na+]` [sodium decyl sulfate], the “state of immobilized streptavidin” value at streptavidin (32 wt %) is “the protein is denatured”.

In turn, `NCCCC[C@@H](CC(N)=O)NC(=O)C[C@H](Cc1ccccc1)NC(=O)[C@H]1CCCC[C@@H]1NC(=O)C[C@H](CCCCN)NC(=O)C[C@H](Cc1ccccc1)NC(=O)[C@H]1CCCC[C@@H]1NC(=O)C[C@H](CCCCN)NC(=O)C[C@H](Cc1ccccc1)NC(=O)[C@H]1CCCC[C@@H]1NC(=O)C[C@@H](N)Cc1ccc(O)cc1` [β-peptide iso-A] registered a solubility limit in series [1] of over 10 wt %. With “pentanoyl-NH-β^3hTyr-(ACHC-ACHC-β^3hLys)3 [pentanoyl-β^3hTyr-(ACHC-ACHC-β^3hLys)3]”, the “state of immobilized streptavidin” value at streptavidin (1 wt %) is reported as “streptavidin is still able to bind biotin”. With “β^3-hTyr-(ACHC-ACHC-β^3-hLys)2 [β-peptide 2]”, the “type of LC phase suggested by optical texture” value in series [1] (room temperature, 2 at 19 wt %, 3 at 10 wt %) is “nematic”. For “β^3-hTyr-(ACHC-β^3-hPhe-β^3-hLys)3 scram”, the “LC phase formation / birefringence (result in words)” value in series [1] is reported as “strong birefringence”.
